Patent publication US20040214799A1, “Cancerous metastasis inhibitors containing carbacyclic phosphatidic acid derivatives” (priority 2001, published 2004)

Columns and labels:
MM1 cells [1] = assay: In vitro invasion assay, LPA-induced invasion of MM1 cells across mesothelial cell monolayer; type: cell-based, rat; conditions: 25 μM LPA; for invasion suppressing activity on LPA-induced invasion, carba-cPA at low concentration (in words): 0.5 μM, 1 μM or 10 μM carba-cPA
Procedure: The abdomen of a male DONRYU rat (300 g, NIPPON BIO-SUPP. CENTER) was opened aseptically. The thus obtained mesenterium was treated with 0.25% trypsin at 37° C. for 15 minutes, filtrated with a 150 μm stainless mesh, and then centrifuged to collect mesothelial cells. The cells were cultured under conditions of 37° C. and 5% CO2 in a medium which was obtained by adding 10% FBS to Eagle's MEMI (Nissui) supplemented with Eagle's MEM amino acid vitamin medium (Nissui) in a volume twice as great as that of the MEMI. A mesothelial cell monolayer which had reached a confluent density after 1 week of culturing was used for invasion assay.
The MM1 cells, which are highly invasive clones of rat ascites hepatoma cells (AH-130), were established by Mukai et al., (Int. J. Cancer : 81, 918-922 (1999)), and was cultured under the same conditions as those for mesothelial cells.
In vitro invasion assay was developed by Akedo et al (Akedo, H et al., Cancer Res. 46, 2416-2422 (1986)). MM1 cells were multi-layer-cultured on the mesothelial cell layer, which had been grown to reach a confluent density, in the presence of 10% FBS or 25 μM LPA (SIGMA). 25 μM cPA was then added. The cells were cultured under conditions of 37° C. and 5% CO2 for 20 hours, and then fixed with 10% formalin. The number of colonies of MM1 cells that had invaded was counted under a phase-contrast microscope (FIG. 3).
cPA and LPA were ice-cooled in PBS containing 0.1% fatty-acid free BSA (SIGMA), ultrasonicated, emulsified, stored at −20° C., and then used.
0.5 μM, 1 μM and 10 μM carba-cPA were added to MM1 cells, and then in vitro invasion assay was performed similarly to (1-1) in the presence of 25 μM LPA.
The following reagents were respectively added to an in vitro invasion assay system so as to examine their effects on MM1 cell invasion in the presence of 25 μM LPA: Forskolin (Wako) which directly activates adenylate cyclase (cAMP synthase); cholera toxin (CTX) (GIBCO BRL) which prevent the deactivation of G protein (Gs) which activates adenylate cyclase; Bt2cAMP (nacalai tesque) which can pass through the membrane and functions in a manner similar to that of cAMP when it enters the cell; or isobutylmethylxanthine (IBMX, 3-isobutyl-1-methylxanthine) (SIGMA) which inhibits phosphodiesterase (cAMP degrading enzyme).

MM1 cells [2] = assay: Effect on the proliferation of MM1 cells; type: cell-based, rat; conditions: 12.5 μM or 25 μM cPA, 10% FBS, 24 hours and 72 hours
Procedure: 12.5 μM and 25 μM cPA were added to media containing 10% FBS, and then the cells were cultured under conditions of 37° C. and 5% CO2 for 24 hours and 72 hours. The number of the MM1 cells was counted using a hemocytometer.

[3] = General state and body weight of B16-F0 melanoma-bearing mice; type: in vivo; conditions: for Body weight (g) day 0: day 0, mean ± S.D.; for Body weight (g) day 0 / Body weight (g) day 4 / Body weight (g) day 7 / Body weight (g) day 11 / Body weight (g) day 14: N 6; for Body weight (g) day 4: day 4, mean ± S.D.; for Body weight (g) day 7: day 7, mean ± S.D.; for Body weight (g) day 11: day 11, mean ± S.D.; for Body weight (g) day 14: day 14, mean ± S.D.; for body weight compared with the medium group at each measurement (in words): days 0, 4, 7, 11, 14; for effect on changes in body weight (in words): 0.001-0.008 mg/body i.v., days 0 to 14
Procedure: The mixture was administered via the caudal vein. The number of grafted cells was 5×10^5 cells/body. The dose of the test substance was 0.001, 0.004 or 0.008 mg/body, and the dose of the positive control substance was 0.008 mg/body.
Observation period ranged from days 0 to 14 after the administration of the test substance. Life and death were confirmed every day during this period, and the general state was observed. Body weight measurement was performed twice a week.
The representative value of each test group was denoted as mean±standard deviation (mean±S.D.). Differences in mean values were examined as follows. The number of metastatic nodules was examined by Dunnett's multiple comparison test between the medium group and the cPA-19 group, and between the medium group and the cPA-20 group. The same was examined by the Student's T-test between the medium group and cPA-5 group. The number of metastatic lesions was examined by the Wilcoxon test using the medium group as a control. The number of animals having metastatic nodules or metastatic lesions was examined by Fisher's extract probability test using the medium group as a control. The significance levels were 1% and 5%.

Row | Compound | suppression of LPA-induced invasion (in words) (MM1 cells [1]; 25 μM cPA derivative, 20 hours) | effect on MM1 cell proliferation (in words) (MM1 cells [2]) | Body weight (g) day 0 ([3]; 0.008 mg/body i.v.) | Body weight (g) day 4 ([3]; 0.008 mg/body i.v.) | Body weight (g) day 7 ([3]; 0.008 mg/body i.v.) | Body weight (g) day 11 ([3]; 0.008 mg/body i.v.) | Body weight (g) day 14 ([3]; 0.008 mg/body i.v.) | body weight compared with the medium group at each measurement (in words) [3] | invasion suppressing activity on LPA-induced invasion, carba-cPA at low concentration (in words) (MM1 cells [1]) | Body weight (g) day 0 ([3]; 0.001 mg/body i.v.) | Body weight (g) day 4 ([3]; 0.001 mg/body i.v.) | Body weight (g) day 7 ([3]; 0.001 mg/body i.v.) | Body weight (g) day 11 ([3]; 0.001 mg/body i.v.) | Body weight (g) day 14 ([3]; 0.001 mg/body i.v.) | Body weight (g) day 0 ([3]; 0.004 mg/body i.v.) | Body weight (g) day 4 ([3]; 0.004 mg/body i.v.) | Body weight (g) day 7 ([3]; 0.004 mg/body i.v.) | Body weight (g) day 11 ([3]; 0.004 mg/body i.v.) | Body weight (g) day 14 ([3]; 0.004 mg/body i.v.) | effect on changes in body weight (in words) [3]
1 | CCCCCCCCCCCCCCCC(=O)OC[C@@H]1COP(=O)(O)O1 [cPA-5, Pal-cPA, reference compound] | suppressed | no effect on MM1 cell proliferation | 15.9 ± 0.6 g | 15.8 ± 0.9 g | 16.2 ± 1.0 g | 17.0 ± 0.8 g | 17.4 ± 1.0 g | no significant difference | – | – | – | – | – | – | – | – | – | – | – | –
2 | carba-ΔPal-cPA [cPA-20] | – | showed proliferation suppressing activity | 15.9 ± 0.5 g | 16.1 ± 0.8 g | 16.3 ± 0.8 g | 17.0 ± 0.9 g | 17.7 ± 0.8 g | no significant difference | stronger invasion suppressing activity than cPA-18 | 15.9 ± 0.6 g | 15.5 ± 0.3 g | 16.1 ± 0.6 g | 16.8 ± 0.4 g | 17.4 ± 0.6 g | 16.0 ± 0.6 g | 16.0 ± 0.7 g | 16.2 ± 0.6 g | 16.9 ± 0.7 g | 17.5 ± 0.8 g | no effect on changes in body weight
3 | carba-Ole-cPA [cPA-19] | – | showed proliferation suppressing activity | 15.9 ± 0.6 g | 15.4 ± 0.5 g | 15.9 ± 0.5 g | 16.8 ± 0.5 g | 17.0 ± 0.4 g | no significant difference | stronger invasion suppressing activity than cPA-18 | 15.9 ± 0.6 g | 15.5 ± 0.5 g | 15.8 ± 0.7 g | 16.5 ± 1.0 g | 17.1 ± 1.2 g | 15.9 ± 0.6 g | 16.0 ± 0.5 g | 16.1 ± 0.6 g | 16.7 ± 0.6 g | 17.6 ± 0.9 g | no effect on changes in body weight
